Where two headings read alike, the source gives them in different places.
Legend:
[1] = test system: Palivizumab; assay: Microtiter plate chromatography of resins, Palivizumab (bound, yield); type: binding, humanized
[2] = target: T1, Bevacizumab (Homo sapiens, UniProt P01857); assay: Microtiter plate chromatography of resins, Bevacizumab whole IgG (bound, yield, selectivity); type: binding, humanized
T1 construct: fused on or other part: humanised anti-VEGF-A VH domain N-terminal of the gamma-1 constant region (engineered, no UniProt entry)

[3] = test system: Bevacizumab; assay: as above; type: binding, humanized
[4] = test system: human poly-IgG (h-poly-IgG); assay: Microtiter plate chromatography of resins, human poly-IgG (bound, yield); type: binding
[5] = test system: host cell proteins (HCP); assay: Microtiter plate chromatography of resins, host cell proteins (bound); type: binding, CHO
[6] = test system: Tocilizumab; assay: Microtiter plate chromatography of resins, Tocilizumab (bound, yield); type: binding, humanized
[7] = fraction of whole IgG Bevacizumab bound to resin
[8] = mass of whole IgG Bevacizumab eluted / mass injected
[9] = fraction of bound Bevacizumab whole IgG / fraction of bound HCP, truncated beyond values of 10
[10] = fraction of injected protein bound to resin
[11] = fraction of injected whole IgG bound to resin
[12] = mass eluted / mass injected, whole IgG
[13] = fraction of injected host cell proteins bound to resin
[14] = bound Bevacizumab whole IgG / bound HCP, truncated beyond values of 10

| SMILES | Palivizumab Bound (%) [1] [%] | Palivizumab Yield (%) [1] [%] | Bevacizumab IgG Bound (%) [2, 7] [%] | Bevacizumab IgG Yield (%) [2, 8] [%] | Selectivity [3] | h-poly-IgG Bound (%) [4] [%] | h-poly-IgG Yield (%) [4] [%] | HCP Bound (%) ([5]; host cell proteins) | Tocilizumab Bound (%) [6] [%] | Tocilizumab Yield (%) [6] [%] | Palivizumab Bound (%) [1, 10] [%] | Palivizumab Yield (%) ([1]; mass eluted / mass injected) | Bevacizumab IgG Bound (%) [2, 11] [%] | Bevacizumab IgG Yield (%) [2, 12] [%] | h-poly-IgG Bound (%) [4, 10] [%] | h-poly-IgG Yield (%) ([4]; mass eluted / mass injected) | HCP Bound (%) [5, 13] [%] | Tocilizumab Bound (%) [6, 10] [%] | Tocilizumab Yield (%) ([6]; mass eluted / mass injected) | Selectivity [3, 14] | also measured |
| --- | --- | --- | --- | --- | --- | --- | --- | --- | --- | --- | --- | --- | --- | --- | --- | --- | --- | --- | --- | --- | --- |
| COc1ccc(NC(=O)c2nn(CCO)c3ccccc23)cc1C(=O)NCCCN [Ligand L59, 5-[1-(2-Hydroxyethyl)indazol-3-ylcarboxamido]-2-methoxybenzoic acid (3-amino-1-propyl)amide] | 64 | 64 | 100 | 97 | 3.1 | 71 | 71 | 32 | 89 | 89 |  |  |  |  |  |  |  |  |  |  |  |
| COc1ccc(NC(=O)c2nn(C)c3ccccc23)cc1C(=O)NCCOCCOCC(=O)NCCOCCOCC(=O)NCCCN [Ligand L61, 8-{8-[2-Methoxy-5-(1-methylindazol-3-ylcarboxamido)phenylcarboxamido]-3,6-dioxaoctanoylamido}-3,6-dioxaoctanoic acid (3-amino-1-propyl)amide] | 67 | 66 | 100 | 92 | 5.1 | 81 | 81 | 20 | 84 | 84 |  |  |  |  |  |  |  |  |  |  |  |
| COc1ccc(NC(=O)c2cn3ncccc3n2)cc1C(=O)NCCOCCOCC(=O)NCCCC[C@H](NC(=O)COCCOCCNC(=O)c1cc(NC(=O)c2cn3ncccc3n2)ccc1OC)C(=O)NCCCN [Ligand L62, (S)-2,6-Bis{8-[5-(Imidazo[1,2-b]pyridazin-2-ylcarboxamido)-2-methoxyphenylcarboxamido]-3,6-dioxaoctanoylamido}hexanoic acid (3-amino-1-propyl)amide] | 84 | 77 | 100 | 100 |  | 89 | 89 | 3 | 95 | 91 |  |  |  |  |  |  |  |  |  |  | Selectivity [3, 9]: 10.0 |
| COc1ccc(NC(=O)c2cn3cccnc3n2)cc1C(=O)NCCCN [Ligand L63, 5-(Imidazo[1,2-a]pyrimidin-2-ylcarboxamido)-2-methoxybenzoic acid (3-amino-1-propyl)amide] | 0 | 0 | 100 | 95 |  | 11 | 10 | 3 | 4 | 4 |  |  |  |  |  |  |  |  |  |  | Selectivity [3, 9]: 10.0 |
| COc1ccc(NC(=O)c2cc(-c3ccco3)n(C)n2)cc1C(=O)NCCOCCOCC(=O)NCCOCCOCC(=O)NCCCN [Ligand L65, 8-{8-{5-[5-(2-Furyl)-1-methylpyrazol-3-ylcarboxamido]-2-methoxyphenylcarboxamido}-3,6-dioxaoctanoylamido}-3,6-dioxaoctanoic acid (3-amino-1-propyl)amide] |  |  |  |  | 9.5 |  |  |  |  |  | 58 | 58 | 100 | 100 | 67 | 67 | 11 | 74 | 71 |  |  |
| COc1ccc(NC(=O)c2cn3ccsc3n2)cc1C(=O)NCCOCCOCC(=O)NCCOCCOCC(=O)NCCCN [Ligand L66, 8-{8-[5-(Imidazo[2,1-b]thiazol-6-ylcarboxamido)-2-methoxyphenylcarboxamido]-3,6-dioxaoctanoylamido}-3,6-dioxaoctanoic acid (3-amino-1-propyl)amide] |  |  |  |  |  |  |  |  |  |  | 41 | 27 | 100 | 100 | 46 | 46 | 0 | 54 | 53 | 10.0 |  |
| COc1ccc(NC(=O)c2nnc(-c3ccco3)o2)cc1C(=O)NCCOCCOCC(=O)NCCOCCOCC(=O)NCCCN [Ligand L67, 8-{8-{5-[5-(2-Furyl)-1,3,4-oxadiazol-2-ylcarboxamido]-2-methoxyphenylcarboxamido}-3,6-dioxaoctanoylamido}-3,6-dioxaoctanoic acid (3-amino-1-propyl)amide] |  |  |  |  |  |  |  |  |  |  | 81 | 80 | 100 | 100 | 89 | 87 | 2 | 91 | 86 | 10.0 |  |
| COc1ccc(NC(=O)c2cc(-c3csc(C)n3)on2)cc1C(=O)NCCOCCOCC(=O)NCCOCCOCC(=O)NCCCN [Ligand L68, 8-{8-{2-Methoxy-5-[5-(2-methylthiazol-4-yl)isoxazol-3-ylcarboxamido]phenylcarboxamido}-3,6-dioxaoctanoylamido}-3,6-dioxaoctanoic acid (3-amino-1-propyl)amide] |  |  |  |  |  |  |  |  |  |  | 65 | 65 | 100 | 100 | 65 | 65 | 4 | 71 | 71 | 10.0 |  |
| COc1ccc(NC(=O)c2cn3ccsc3n2)cc1C(=O)NCCOCCOCCNC(=O)NCCOCCOCCN [Ligand L69, N-(8-Amino-3,6-dioxaoctyl)-N′-{8-[5-(imidazo[2,1-b]thiazol-6-ylcarboxamido)-2-methoxyphenylcarboxamido]-3,6-dioxaoctyl}urea] |  |  |  |  |  |  |  |  |  |  | 45 | 45 | 100 | 100 | 63 | 63 | 2 | 78 | 73 | 10.0 |  |
| NCCCNC(=O)c1cccc(C(=O)Nc2nnc(-c3ccco3)s2)c1 [Ligand L70, Isophthalic acid N-(3-aminopropyl)-N′-[5-(2-furyl)-1,3,4-thiadiazol-2-yl]amide] |  |  |  |  | 5.4 |  |  |  |  |  | 55 | 55 | 100 | 83 | 64 | 64 | 19 | 100 | 100 |  |  |
| Cn1nc(NC(=O)c2cccc(C(=O)NCCCN)c2)c2ccccc21 [Ligand L71, Isophthalic acid N-(3-aminopropyl)-N′-(1-methylindazol-3-yl)amide] |  |  |  |  | 4.0 |  |  |  |  |  | 24 | 24 | 100 | 88 | 45 | 45 | 25 | 51 | 49 |  |  |
